Here are results for 7 molecules from PMC5769330, “Flaxseed-enriched diets change milk concentration of the antimicrobial danofloxacin in sheep” (BMC Veterinary Research, 2018).

Where a name gives a salt, the structure may show the parent alone. Read-outs that look alike come from different tables or passages of the source.

The nature of data set [1]: Enterolignans and conjugates in plasma and milk of sheep fed flaxseed-enriched diets (UPLC-QTOF-MS). Format: in vivo. The settings on record: qualitative. The procedure:
Eighteen lactating […] (3-4 months in lactation and weighing 66-105 kg) were used and milked twice daily. The animals were parasite-free, and drinking water was available ad libitum. The experimental design was performed with animals stratified according to milk production and number of days post-partum, and then randomly distributed in the experimental groups. The animals were divided into 3 diet groups of 6 animals each. One group of sheep was fed a standard diet, a second group was fed a lignan-enriched diet containing 10% whole flaxseed (Nutricor SL, Leon, Spain) for 2 weeks, and a third group was fed a lignan-enriched diet containing 15% whole flaxseed (Nutricor SL) also for 2 weeks (diet composition is shown in Table 1). Flaxseed amounts and duration of treatment were chosen based on previous studies on cows. Whole flaxseed composition included 20.2% of crude protein, 13.1% of crude fiber and 28.5% of ether extract. All sheep were fed ad libitum twice per day after each milking (09.00 and 18.00 h). Feed intake was not affected by the different experimental diets. […] [29]. The dry residue was dissolved in methanol and filtered (0.22 μm) prior to injection into the ultra-performance liquid chromatography quadrupole time-of-flight mass spectrometry (UPLC-QTOF-MS) equipment. Analyses were developed using an Agilent 1290 Infinity LC system coupled to a 6550 Accurate-Mass QTOF (Agilent Technologies, Waldbronn, Germany) and using an electrospray interface (Jet Stream Technology). Analytical conditions were as previously described with some modifications. Briefly, 5 μL of sample was injected onto a reverse phase Poroshell 120 EC-C18 column (3 × 100 mm, 2.7 μm) (Agilent Technologies) operating at 30 °C. […] The electrospray interface parameters were as follows: gas temperature, 280 °C; drying gas flow, 9 L/min; nebulizer pressure, 35 psi; sheath gas temperature, 400 °C; sheath gas flow, 12 L/min. Spectra were acquired in the m/z range from 100 to 1100 in negative mode and fragmentor voltage was 100 V. Data were processed using Mass Hunter Qualitative Analysis software (version B.06.00 Agilent Technologies). A target screening strategy was applied to plasma and milk samples for the qualitative screening of possible enterolignan-related metabolites. A list of target compounds (60 possible metabolites) covering different phase I and phase II metabolites of parent compound and microbial metabolites was sought in all the samples after MS full-acquisition. Screening was based on mass filtering at the exact mass of the studied compound using narrow mass extraction windows (0.01 m/z). Identification was possible from the valuable information given in QTOF-MS acquisition mode which provides possible molecular formulae for the compounds based on accurate mass and isotopic pattern (Table 2). Additionally, a targeted MS/MS experiment offered fragmentation information for greater reliability in the compound identification process. When possible, direct comparison with authentic standards was performed. Quantification of enterolactone and enterodiol was determined by interpolation in the calibration curve obtained from their own available standards. These metabolites were quantified in MS by peak area integration of their extracted ion chromatograms. Calibration curves were linear from the limit of quantification (LOQ) to 500 nmol/L. […] In the case of conjugated metabolites accurate quantification was not possible due to the absence of available standards and so only qualitative results are provided.

Data set [2] in a line: Plasma pharmacokinetics of danofloxacin after i.m. administration to lactating sheep fed control or flaxseed-enriched diets. The following applies: female, Assaf, im, 1.25 mg/kg, 1.25 mg/kg i.m., mean ± SD; for AUC(0-inf) / Cmax / MRT / Tmax: n = 6; for AUC(0-t): n = 6, read-out: AUC 0–24. In kind it is in vivo. The procedure: (§1) Eighteen lactating […] (3-4 months in lactation and weighing 66-105 kg) were used and milked twice daily. The animals were parasite-free, and drinking water was available ad libitum. The experimental design was performed with animals stratified according to milk production and number of days post-partum, and then randomly distributed in the experimental groups. The animals were divided into 3 diet groups of 6 animals each. One group of sheep was fed a standard diet, a second group was fed a lignan-enriched diet containing 10% whole flaxseed (Nutricor SL, Leon, Spain) for 2 weeks, and a third group was fed a lignan-enriched diet containing 15% whole flaxseed (Nutricor SL) also for 2 weeks (diet composition is shown in Table 1). Flaxseed amounts and duration of treatment were chosen based on previous studies on cows. Whole flaxseed composition included 20.2% of crude protein, 13.1% of crude fiber and 28.5% of ether extract. All sheep were fed ad libitum twice per day after each milking (09.00 and 18.00 h). Feed intake was not affected by the different experimental diets. After 2 weeks on the experimental diets, animals in all groups received a single therapeutic dose (1.25 mg/kg, i.m.) of danofloxacin (Advocin 2.5%, Pfizer, Cedex, France). Blood samples (5 mL) were collected from the jugular vein in commercial blood collection tubes (Vacutainer, 10 mL; […] The pharmacokinetic schedule was based on previous studies from our group. […] A complete evacuation of the udder was carried out at each sampling to avoid any dilution effect. Samples were stored at - 20 °C until analysis. Conditions for HPLC analysis of danofloxacin concentrations in plasma and milk were modified according to previously published methods. […] To each 100 μL aliquot of sample, 600 μL of chloroform was added. […] The residue was reconstituted in 100 μL of methanol and injected into the HPLC system. The system consisted of a Waters 600 pump, a Waters 717 plus autosampler, and a Waters 486 fluorescence detector (Waters Corporation, Milford, MA). […] The mobile phase consisted of 25 mM orthophosphoric acid supplemented with 0.1% triethylamine (pH 3.0): acetonitrile (80:20 v/v) at a flow rate of 1.6 mL/min. Sample detection was performed by fluorescence detection at 338 nm (excitation) and 425 nm (emission). Integration was carried out using MILLENNIUM 32 software (Waters). […] Correlation coefficients (r) for danofloxacin ranged between 0.998 and 0.984 for the calibration curves in plasma and milk curves respectively. LOQ were 1.9 ng/mL for sheep plasma and 19 ng/mL for sheep milk. Peak concentration (Cmax) and time-peak concentrations (Tmax) were read from the plotted concentration-time curve for each animal. The area under the plasma concentration-time curves (AUC) was calculated using the linear trapezoidal rule. Mean residence time (MRT) was calculated by the linear trapezoidal rule with extrapolation to time infinity, using the formula: MRT = AUMC/AUC, where AUMC is the mean area under the first moment curve. These calculations were made with a computer program (PK solution 2.0, Summit Research Services, Ashland, OH) and determined by non-compartmental analyses.

The conditions of data set [3]: effect of isoflavones present in soy; cited from earlier work.
Data set [4] can be described thus: Milk pharmacokinetics (secretion into milk) of danofloxacin after i.m. administration to lactating sheep fed control or flaxseed-enriched diets. In kind it is in vivo. The settings on record: 1.25 mg/kg i.m.; for Kp / AUC(0-t) / AUC(0-inf) / Cmax / MRT / Tmax: female, Assaf, sheep, 1.25 mg/kg, mean ± SD, n = 6; for Kp: milk and plasma, intramuscular, read-out: AUC 0–24 milk/plasma; for AUC(0-t) / AUC(0-inf) / Cmax / MRT / Tmax: milk, im; for AUC(0-t): read-out: AUC 0–24. The procedure: as §1

Setting [5] is: sheep fed flaxseed-enriched diets vs. control diet.

Broadly, the AUC(0-inf) is total exposure, with the tail of the curve extrapolated. A higher AUC(0-inf) goes with more exposure. As usually defined, the Cmax is the maximum level reached in the sampled fluid or tissue. For orientation: MRT means a mean duration of stay, worked out from the concentration-time curve. Broadly, the Tmax is the time from dosing to the highest level.

Consider `O=C(O)[C@H]1O[C@@H](Oc2cccc(C[C@@H](CO)[C@H](CO)Cc3cccc(O)c3)c2)[C@H](O)[C@@H](O)[C@@H]1O` [Enterodiol- glucuronide], for which the “Localization (matrix in which the compound was identified)” value (“Localization” for short) in data set [1] is given as “Plasma”.

Turning to `O=S(=O)(O)Oc1cccc(C[C@@H](CO)[C@H](CO)Cc2cccc(O)c2)c1` [Enterodiol- sulfate], the “Localization” value in data set [1] is reported as “Plasma”.

For `OC[C@H](Cc1cccc(O)c1)[C@H](CO)Cc1cccc(O)c1` [Enterodiol], the “Localization” value in data set [1] is on record as “Plasma, milk”.

Turning to `O=C1OC[C@H](Cc2cccc(O)c2)[C@H]1Cc1cccc(O)c1` [Enterolactone], the “Localization” value in data set [1] is listed as “Plasma, milk”.

Turning to `CN1C[C@@H]2C[C@H]1CN2c1cc2c(cc1F)c(=O)c(C(=O)O)cn2C1CC1` [danofloxacin], in data set [2] (control diet), the AUC(0-inf) was found to be 1750 ± 380 ng·h/mL, the concentration peaked (Cmax) at 310 ± 50 ng/mL, the MRT is 4.22 ± 0.73 h and the Tmax amounted to 1.5 ± 0.5 h. Further, the AUC(0-t) in data set [2] (control diet) worked out at 1740 ± 370 ng·h/mL. Also, in data set [2] (flaxseed 10% diet), the AUC(0-inf) was determined as 1930 ± 250 ng·h/mL, the peak level (Cmax) was 310 ± 60 ng/mL, the MRT was found to be 4.77 ± 0.49 h and the Tmax was 1.5 ± 0.5 h. The AUC(0-t) in data set [2] (flaxseed 10% diet) amounted to 1920 ± 260 ng·h/mL. Also, in data set [2] (flaxseed 15% diet), the AUC(0-inf) is 1810 ± 150 ng·h/mL, the Cmax worked out at 300 ± 40 ng/mL, the mean residence time MRT came to 4.95 ± 0.39 h and the Tmax came out at 1.16 ± 0.37 h. Also, the AUC(0-t) in data set [2] (flaxseed 15% diet) worked out at 1790 ± 150 ng·h/mL. Besides, in data set [3], the “Reduction of danofloxacin residue in ovine milk” value is reported as 50%. Moreover, in data set [4] (control diet), the Kp was determined as 11 ± 1.95, the AUC(0-t) was found to be 19200 ± 5030 ng·h/mL, the AUC(0-inf) turned out to be 19400 ± 5120 ng·h/mL and the Cmax came out at 2950 ± 740 ng/mL. Further, in data set [4] (control diet), the MRT was 5.35 ± 0.87 h and the Tmax was found to be 2.66 ± 0.94 h. Besides, in data set [4] (flaxseed 10% diet), the Kp was found to be 7.81 ± 2.08, the AUC(0-t) is 14600 ± 1790 ng·h/mL, the AUC(0-inf) turned out to be 14900 ± 1860 ng·h/mL and the Cmax was found to be 2200 ± 350 ng/mL. Also, in data set [4] (flaxseed 10% diet), the MRT amounted to 5.25 ± 0.35 h and the Tmax is 3 ± 1 h. Also, in data set [4] (flaxseed 15% diet), the Kp was 7.57 ± 2.1, the AUC(0-t) was determined as 13400 ± 3070 ng·h/mL, the AUC(0-inf) was 13700 ± 3130 ng·h/mL and the peak level (Cmax) was 1840 ± 440 ng/mL. For the same molecule, in data set [4] (flaxseed 15% diet), the MRT is 5.54 ± 0.29 h and the time to peak (Tmax) is 2.66 ± 0.94 h. Besides, the “Reduction of milk Cmax” value in data set [4] (group fed 15% flaxseed vs. control group) is listed as approximately 40%. The “Reduction of secretion into milk / milk residue” value in data set [4] (sheep fed flaxseed diet vs. control) was 25–30%. In data set [4] (setting [5]), the “Reduction of AUC0–24 milk-to-plasma ratio” value was 25–30%, the “Reduction of milk AUC0–24” value is listed as 25–30% and the “Reduction of milk Cmax” value is 25–30%.

As to Enterolactone-glucuronide, the “Localization” value in data set [1] is “Plasma”.

In the case of Enterolactone-sulfate, the “Localization” value in data set [1] was “Plasma”.
